In brackets after ≈: the same amount, converted by molar mass.
How the values were obtained:
Assay type in all cases: functional
Staphylococcus aureus [1] = assay: Antibacterial activity against methicillin-resistant Staphylococcus aureus ATCC 43300
Klebsiella pneumoniae = assay: Antibacterial activity against Klebsiella pneumoniae BAA 2146
Escherichia coli [2] = assay: Antibacterial activity against Escherichia coli MG1655
Acinetobacter baumannii = assay: Antibacterial activity against Acinetobacter baumannii 2208 ATCC 19606
Enterobacter cloacae = assay: Antibacterial activity against Enterobacter cloacae ATCC 13047
Pseudomonas aeruginosa = assay: Antibacterial activity against Pseudomonas aeruginosa HER 1018
Enterococcus faecium = assay: Antibacterial activity against Enterococcus faecium NCTC 7171
Staphylococcus aureus [3] = assay: Antibacterial activity against Staphylococcus aureus UCN14
Escherichia coli [4] = assay: Antibacterial activity against Escherichia coli DK2058G
Escherichia coli [5] = assay: Antibacterial activity against Escherichia coli SQ171 2058G
Staphylococcus aureus [6] = assay: Antibacterial activity against Staphylococcus aureus UCN18
Escherichia coli [7] = assay: Antibacterial activity against Escherichia coli DK3535
Escherichia coli [8] = assay: Antibacterial activity against Escherichia coli DK
Staphylococcus aureus [9] = assay: Antibacterial activity against Staphylococcus aureus UCN17
Escherichia coli [10] = assay: Antibacterial activity against Escherichia coli SQ171
Staphylococcus aureus [11] = assay: Antibacterial activity against Staphylococcus aureus ATCC 29213
Streptococcus pneumoniae [12] = assay: Antibacterial activity against Streptococcus pneumoniae 655 mef A
Staphylococcus aureus [13] = assay: Antibacterial activity against Staphylococcus aureus ATCC 33591
Streptococcus pneumoniae [14] = assay: Antibacterial activity against Streptococcus pneumoniae 2196 erm B
Streptococcus pneumoniae [15] = assay: Antibacterial activity against Streptococcus pneumoniae 2634 mef A 2059G

MIC (Staphylococcus aureus [3])	MIC (Escherichia coli [4])	MIC (Escherichia coli [5])	MIC (Staphylococcus aureus [6])	MIC (Escherichia coli [7])	MIC (Escherichia coli [8])	MIC (Staphylococcus aureus [9])	MIC (Escherichia coli [10])	MIC (Staphylococcus aureus [11])	MIC (Streptococcus pneumoniae [12])	MIC (Staphylococcus aureus [13])	MIC (Streptococcus pneumoniae [14])	MIC (Streptococcus pneumoniae [15])	Compound	MIC (Staphylococcus aureus [1])	MIC (Klebsiella pneumoniae)	MIC (Escherichia coli [2])	MIC (Acinetobacter baumannii)	MIC (Enterobacter cloacae)	MIC (Pseudomonas aeruginosa)	MIC (Enterococcus faecium)
–	–	–	–	–	–	–	–	–	–	–	–	–	[N-]=[N+]=NC[C@@H]1CN(c2ccc(N3CCOCC3)c(F)c2)C(=O)O1	> 200 µM	> 200 µM	> 200 µM	> 200 µM	> 200 µM	> 200 µM	> 200 µM
–	–	–	–	–	–	–	–	–	–	–	–	–	[N-]=[N+]=NC[C@H]1CN(c2ccc(N3CCOCC3)c(F)c2)C(=O)O1	> 200 µM	> 200 µM	> 200 µM	> 200 µM	> 200 µM	> 200 µM	> 200 µM
–	–	–	–	–	–	–	–	–	–	–	–	–	CC[C@H]1OC(=O)[C@@](C)(F)C(=O)[C@H](C)[C@@H](O[C@@H]2O[C@H](C)C[C@H](N(C)CCc3cn(C[C@@H]4CN(c5ccc(N6CCOCC6)c(F)c5)C(=O)O4)nn3)[C@H]2O)[C@](C)(OC)C[C@@H](C)C(=O)[C@H](C)C2N(CCCCn3cc(-c4cccc(N)c4)nn3)C(=O)O[C@@]21C (single isomer, unassigned)	200 µM (≈ 241 µg/mL)	> 200 µM	> 200 µM	> 200 µM	> 200 µM	> 200 µM	> 200 µM
19 µM (≈ 15.8 µg/mL)	2.4 µM (≈ 2 µg/mL)	> 38 µM	9.6 µM (≈ 8.01 µg/mL)	2.4 µM (≈ 2 µg/mL)	2.4 µM (≈ 2 µg/mL)	9.6 µM (≈ 8.01 µg/mL)	> 38 µM	< 0.075 µM	–	–	–	–	CC[C@H]1OC(=O)[C@@](C)(F)C(=O)[C@H](C)[C@@H](O[C@@H]2O[C@H](C)C[C@H](N(C)C)[C@H]2O)[C@](C)(OC)C[C@@H](C)C(=O)[C@H](C)C2N(C/C=C/Cn3cc(-c4cccs4)nn3)C(=O)O[C@@]21C (single isomer, unassigned)	–	–	–	–	–	–	–
> 150 µM	4.8 µM (≈ 3.99 µg/mL)	–	> 150 µM	4.8 µM (≈ 3.99 µg/mL)	–	> 150 µM	–	–	> 4.8 µM	> 150 µM	> 4.8 µM	> 4.8 µM	CC[C@H]1OC(=O)[C@@](C)(F)C(=O)[C@H](C)[C@@H](OC[C@@H](O)CN2CCOCC2)[C@](C)(OC)C[C@@H](C)C(=O)[C@H](C)C2N(CCCCn3cc(-c4cccc(N)c4)nn3)C(=O)O[C@@]21C (single isomer, unassigned)	–	–	–	–	–	–	–
> 130 µM	7.9 µM (≈ 8.04 µg/mL)	> 31 µM	> 130 µM	7.9 µM (≈ 8.04 µg/mL)	3.9 µM (≈ 3.97 µg/mL)	> 130 µM	> 31 µM	3.9 µM (≈ 3.97 µg/mL)	–	–	–	–	CC[C@H]1OC(=O)[C@@](C)(F)C(=O)[C@H](C)[C@@H](O[C@@H]2O[C@H](C)C[C@H](N(C)CCCn3cc(-c4cccnc4)nn3)[C@H]2O)[C@](C)(OC)C[C@@H](C)C(=O)[C@H](C)C2N(CCCCn3cc(-c4cccc(N)c4)nn3)C(=O)O[C@@]21C (single isomer, unassigned)	–	–	–	–	–	–	–
> 160 µM	> 41 µM	–	> 160 µM	> 41 µM	–	> 160 µM	–	–	2.5 µM (≈ 1.97 µg/mL)	> 160 µM	> 5.1 µM	> 5.1 µM	CC[C@H]1OC(=O)[C@@](C)(F)C(=O)[C@H](C)[C@@H](OC[C@@H](O)CN(C)C)[C@](C)(OC)C[C@@H](C)C(=O)[C@H](C)C2N(CCCCn3cc(-c4cccc(N)c4)nn3)C(=O)O[C@@]21C (single isomer, unassigned)	–	–	–	–	–	–	–
> 150 µM	4.8 µM (≈ 3.98 µg/mL)	–	> 150 µM	9.6 µM (≈ 7.96 µg/mL)	–	> 150 µM	–	–	> 4.8 µM	> 150 µM	> 4.8 µM	> 4.8 µM	CC[C@H]1OC(=O)[C@@](C)(F)C(=O)[C@H](C)[C@@H](OC[C@@H](O)CN2CCCCC2)[C@](C)(OC)C[C@@H](C)C(=O)[C@H](C)C2N(CCCCn3cc(-c4cccc(N)c4)nn3)C(=O)O[C@@]21C (single isomer, unassigned)	–	–	–	–	–	–	–
> 120 µM	7.8 µM (≈ 8.04 µg/mL)	> 31 µM	> 120 µM	7.8 µM (≈ 8.04 µg/mL)	7.8 µM (≈ 8.04 µg/mL)	> 120 µM	> 31 µM	1.9 µM (≈ 1.96 µg/mL)	–	–	–	–	CC[C@H]1OC(=O)[C@@](C)(F)C(=O)[C@H](C)[C@@H](O[C@@H]2O[C@H](C)C[C@H](N(C)CCCCn3cc(-c4cccnc4)nn3)[C@H]2O)[C@](C)(OC)C[C@@H](C)C(=O)[C@H](C)C2N(CCCCn3cc(-c4cccc(N)c4)nn3)C(=O)O[C@@]21C (single isomer, unassigned)	–	–	–	–	–	–	–

— ChEMBL document CHEMBL5154777, “Alternative approaches utilizing click chemistry to develop next-generation analogs of solithromycin” (2022)
